Our source for the inhibition values is ChEMBL document CHEMBL1287749, “Acetazolamide-based fungal chitinase inhibitors” (Bioorg Med Chem, 2010).

This experiment addresses T1, Endochitinase A1 (Aspergillus fumigatus) (UniProt Q873Y0).
T1 sequence (whole entry): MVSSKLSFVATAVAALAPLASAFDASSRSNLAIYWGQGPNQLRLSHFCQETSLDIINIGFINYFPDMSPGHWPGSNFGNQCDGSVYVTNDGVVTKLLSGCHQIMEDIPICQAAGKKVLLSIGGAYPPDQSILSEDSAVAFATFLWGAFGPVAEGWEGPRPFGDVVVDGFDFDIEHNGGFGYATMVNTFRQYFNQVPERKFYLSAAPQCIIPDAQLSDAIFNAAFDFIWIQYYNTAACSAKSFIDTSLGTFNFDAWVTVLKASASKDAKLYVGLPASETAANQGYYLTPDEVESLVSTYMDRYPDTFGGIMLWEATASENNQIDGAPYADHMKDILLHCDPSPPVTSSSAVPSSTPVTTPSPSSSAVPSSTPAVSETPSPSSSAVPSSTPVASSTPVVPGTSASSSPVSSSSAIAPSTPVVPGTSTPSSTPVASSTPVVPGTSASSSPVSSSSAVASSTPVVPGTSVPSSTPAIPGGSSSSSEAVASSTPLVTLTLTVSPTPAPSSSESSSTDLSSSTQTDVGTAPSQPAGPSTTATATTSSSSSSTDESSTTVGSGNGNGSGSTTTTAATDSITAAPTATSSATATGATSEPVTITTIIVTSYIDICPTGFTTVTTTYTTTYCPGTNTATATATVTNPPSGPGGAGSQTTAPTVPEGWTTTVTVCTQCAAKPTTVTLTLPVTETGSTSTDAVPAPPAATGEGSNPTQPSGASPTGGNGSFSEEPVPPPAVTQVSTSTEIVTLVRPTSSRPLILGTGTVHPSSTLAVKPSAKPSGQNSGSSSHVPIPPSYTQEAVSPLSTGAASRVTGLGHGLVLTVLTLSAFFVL
The following applies: 1 mM.

The source made the active and inactive calls. The calls are words filed in the database; no cut-off is given here.

On to `Nc1nnc(S(N)(=O)=O)s1`, for which the inhibition entry is “inactive”.
